Laboratory results as given in patent publication US20170050957A1, “4-AMINO-6-(HETEROCYCLIC)PICOLINATES AND 6-AMINO-2-(HETEROCYCLIC)PYRIMIDINE-4-CARBOXYLATES AND THEIR USE AS HERBICIDES” (Dow AgroSciences LLC, priority 2013, published 2017).
Read-outs that look alike come from different tables or passages of the source.

Tests used:
[1] = test system: Key Grass and Sedge Weeds as well as Grass Crops; assay: Post-emergent Test II herbicidal activity (Table 16); type: in vivo; settings: post-emergence, 336 h, 14 d; for pest or weed control at 35 g/ha: 35 g ai/ha; for pest or weed control at 70 g/ha: 70 g ai/ha; for pest or weed control at 140 g/ha: 140 g ai/ha
Procedure, shortened: (§1)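 Visual injury rating (0 = none, 100 = complete kill) taken 14 d after treatment, relative to untreated plants. Compounds in acetone/DMSO with crop oil concentrate and Triton X-155 were track-sprayed at 187 L/ha onto seedlings at the first-second true leaf stage.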

[2] = test system: Key Broadleaf Weed and Crop Species; assay: Post-emergent Test II herbicidal activity (Table 15); type: in vivo; settings: post-emergence, 336 h, 14 d; for pest or weed control at 35 g/ha: 35 g ai/ha; for pest or weed control at 70 g/ha: 70 g ai/ha; for pest or weed control at 140 g/ha: 140 g ai/ha
Procedure, shortened: as §1

[3] = Cyperus esculentus, yellow nutsedge (Cyperus esculentus), read-out: Visual Growth Reduction (%) 14 Days After Application, CYPES
[4] = Echinochloa crus-galli, barnyardgrass (Echinochloa crus-galli), read-out: Visual Growth Reduction (%) 14 Days After Application, ECHCG
[5] = Oryza sativa, rice (Oryza sativa), read-out: Visual Growth Reduction (%) 14 Days After Application, ORYSA
[6] = Setaria faberi, giant foxtail (Setaria faberi), read-out: Visual Growth Reduction (%) 14 Days After Application, SETFA
[7] = Triticum aestivum, wheat, spring (Triticum aestivum), read-out: Visual Growth Reduction (%) 14 Days After Application, TRZAS
[8] = Zea mays, maize, corn (Zea mays), read-out: Visual Growth Reduction (%) 14 Days After Application, ZEAMX
[9] = Abutilon theophrasti, velvetleaf (Abutilon theophrasti), read-out: Visual Growth Reduction (%) 14 Days After Application, ABUTH
[10] = Amaranthus retroflexus, redroot pigweed (Amaranthus retroflexus), read-out: Visual Growth Reduction (%) 14 Days After Application, AMARE
[11] = Brassica napus, oilseed rape, canola (Brassica napus), read-out: Visual Growth Reduction (%) 14 Days After Application, BRSNN
[12] = Chenopodium album, lambsquarters (Chenopodium album), read-out: Visual Growth Reduction (%) 14 Days After Application, CHEAL
[13] = Euphorbia heterophylla, wild poinsettia (Euphorbia heterophylla), read-out: Visual Growth Reduction (%) 14 Days After Application, EPHHL
[14] = Helianthus annuus, sunflower (Helianthus annuus), read-out: Visual Growth Reduction (%) 14 Days After Application, HELAN

Q: Which results are given for `COC(=O)c1nc(-c2cc3occc3cc2F)nc(N)c1OC` [Compound 2.14]?
A: pest or weed control at 35 g/ha [1, 3]: 0 to 29%; pest or weed control at 70 g/ha [1, 3]: 0 to 29%; pest or weed control at 140 g/ha [1, 3]: 0 to 29%; pest or weed control at 35 g/ha [1, 4]: 0 to 29%; pest or weed control at 70 g/ha [1, 4]: 0 to 29%; pest or weed control at 140 g/ha [1, 4]: 75 to 84%; pest or weed control at 35 g/ha [1, 5]: 0 to 29%; pest or weed control at 70 g/ha [1, 5]: 0 to 29%; pest or weed control at 140 g/ha [1, 5]: 0 to 29%; pest or weed control at 35 g/ha [1, 6]: 0 to 29%; pest or weed control at 70 g/ha [1, 6]: 0 to 29%; pest or weed control at 140 g/ha [1, 6]: 0 to 29%; pest or weed control at 35 g/ha [1, 7]: 0 to 29%; pest or weed control at 70 g/ha [1, 7]: 0 to 29%; pest or weed control at 140 g/ha [1, 7]: 0 to 29%; pest or weed control at 35 g/ha [1, 8]: 0 to 29%; pest or weed control at 70 g/ha [1, 8]: 0 to 29%; pest or weed control at 140 g/ha [1, 8]: 0 to 29%; pest or weed control at 35 g/ha [2, 9]: 0 to 29%; pest or weed control at 70 g/ha [2, 9]: 0 to 29%; pest or weed control at 140 g/ha [2, 9]: 0 to 29%; pest or weed control at 35 g/ha [2, 10]: 95 to 100%; pest or weed control at 70 g/ha [2, 10]: 95 to 100%; pest or weed control at 140 g/ha [2, 10]: 95 to 100%; pest or weed control at 35 g/ha [2, 11]: 95 to 100%; pest or weed control at 70 g/ha [2, 11]: 95 to 100%; pest or weed control at 140 g/ha [2, 11]: 95 to 100%; pest or weed control at 35 g/ha [2, 12]: 85 to 94%; pest or weed control at 70 g/ha [2, 12]: 95 to 100%; pest or weed control at 140 g/ha [2, 12]: 95 to 100%; pest or weed control at 35 g/ha [2, 13]: 85 to 94%; pest or weed control at 70 g/ha [2, 13]: 95 to 100%; pest or weed control at 140 g/ha [2, 13]: 95 to 100%; pest or weed control at 35 g/ha [2, 14]: 60 to 74%; pest or weed control at 70 g/ha [2, 14]: 85 to 94%; pest or weed control at 140 g/ha [2, 14]: 95 to 100%; melting point: 153 °C
